Data on 15 molecules can be found in paper PMC10573892, “β-Lactam TRPM8 Antagonists Derived from Phe-Phenylalaninol Conjugates: Structure–Activity Relationships and Antiallodynic Activity” (International Journal of Molecular Sciences, 2023).

The first experiment deals with T1, rat TRPM8 channel (rTRPM8) (Rattus norvegicus, UniProt Q8R455).
T1 construct: expressed in transfected cells
T1 sequence (Q8R455 whole entry): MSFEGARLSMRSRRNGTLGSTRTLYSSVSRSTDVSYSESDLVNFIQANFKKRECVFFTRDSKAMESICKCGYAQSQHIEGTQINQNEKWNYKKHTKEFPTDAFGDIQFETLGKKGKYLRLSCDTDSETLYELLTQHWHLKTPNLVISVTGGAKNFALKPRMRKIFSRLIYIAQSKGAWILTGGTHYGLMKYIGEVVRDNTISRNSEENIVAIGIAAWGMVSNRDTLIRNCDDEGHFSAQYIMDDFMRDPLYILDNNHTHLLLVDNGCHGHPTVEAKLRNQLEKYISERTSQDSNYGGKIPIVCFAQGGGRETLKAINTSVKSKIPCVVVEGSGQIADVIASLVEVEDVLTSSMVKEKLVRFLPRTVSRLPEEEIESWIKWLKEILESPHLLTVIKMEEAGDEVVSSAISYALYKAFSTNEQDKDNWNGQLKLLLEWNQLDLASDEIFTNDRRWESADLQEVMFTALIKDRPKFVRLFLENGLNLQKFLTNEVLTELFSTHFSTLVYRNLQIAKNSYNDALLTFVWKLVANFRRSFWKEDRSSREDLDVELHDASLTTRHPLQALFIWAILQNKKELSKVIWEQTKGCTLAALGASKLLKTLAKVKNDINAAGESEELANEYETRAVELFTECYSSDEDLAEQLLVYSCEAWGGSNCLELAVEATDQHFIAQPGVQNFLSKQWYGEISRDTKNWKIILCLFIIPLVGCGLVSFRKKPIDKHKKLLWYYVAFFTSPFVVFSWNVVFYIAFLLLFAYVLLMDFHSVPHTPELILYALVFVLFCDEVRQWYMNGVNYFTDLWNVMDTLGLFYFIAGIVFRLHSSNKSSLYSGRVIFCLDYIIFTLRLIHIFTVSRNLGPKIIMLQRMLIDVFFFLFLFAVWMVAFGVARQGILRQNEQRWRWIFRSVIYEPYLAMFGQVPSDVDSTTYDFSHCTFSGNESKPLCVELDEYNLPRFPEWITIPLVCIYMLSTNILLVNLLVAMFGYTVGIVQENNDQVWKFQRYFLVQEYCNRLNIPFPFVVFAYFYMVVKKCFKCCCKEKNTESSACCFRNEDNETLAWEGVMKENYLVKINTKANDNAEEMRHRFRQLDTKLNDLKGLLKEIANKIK
Put plainly: Ca2+ microfluorimetry, menthol-induced Ca2+ entry in HEK293 cells overexpressing rTRPM8. The format is cell-based. Particulars: HEK293; at 50 μM. The procedure: The diastereomeric 1,4,4-trisubstitutes β-lactams were evaluated as modulators of the TRPM8 channel by calcium microfluorimetry assays. These assays use a Human Embryonic Kidney 293 (HEK293) cell line that stably overexpressed rat TRPM8 channel (rTRPM8). […] Three separated experiments in triplicate were used.
The initial biological evaluation of this series of 1,3,4,4-tetrasubstituted β-lactams was performed by calcium microfluorimetry assays using the indicated HEK293 cell line overexpressing rTRPM8 channels.
Calcium fluorometry, Patch-Clamp assays and in vivo experiments were performed using the methodology previously described for TRPM8 [35] or TRPM3 [61]. In the Patch -Clamp experiments, the intracellular pipette solution contained (in mM) 140 KCl, 5 EGTA, and 10 mM HEPES, adjusted to pH 7.2 with KOH, and the extracellular solution contained (in mM) 140 NaCl, 2 CaCl2, 1 MgCl2, 10 D-glucose and 10 HEPES, adjusted to pH 7.4 with NaOH. Selectivity against TRPV1, TRPV3, TRPA1 and ASIC3 was subcontracted to Eurofins-CEREP or Eurofins-PANLABS (see ref. [35] for more details).
With `O=C1C[C@@]2(Cc3ccccc3)C(=O)N[C@@H](Cc3ccccc3)CN12` [Compound 11a, (3S,6S)-3,6-dibenzyl-1,4-diazabicyclo[4.2.0]octane-5,8-dione], the inhibition – broadly, how much of the control response was suppressed – at 50 µM is less than 50%.

The same experiment, now with this note: Table 1; rTRPM8, HEK293, activation by 100 µM menthol.
As for `O=C1CC(Cc2ccccc2)(C(=O)NCc2ccccn2)N1C[C@H](Cc1ccccc1)N(Cc1ccccc1)Cc1ccccc1` (stereo partly drawn) [8a,b], the midpoint of inhibition, the IC50, lay at 1.99 ± 1.26 µM.

With `O=C1CC(Cc2ccccc2)(C(=O)NCc2ccccc2)N1C[C@H](Cc1ccccc1)N(Cc1ccccc1)Cc1ccccc1` (stereo partly drawn) [5a,b], the IC50 – broadly, the concentration needed to halve the response being measured – worked out at 0.71 ± 1.27 µM.

Regarding `O=C1CC(Cc2ccccc2)(C(=O)Nc2cccnc2)N1C[C@H](Cc1ccccc1)N(Cc1ccccc1)Cc1ccccc1` (stereo partly drawn) [7a,b], the IC50 worked out at 11.6 ± 1.3 µM.

Take `CC(C)CNC(=O)C1(Cc2ccccc2)CC(=O)N1C[C@H](Cc1ccccc1)N(Cc1ccccc1)Cc1ccccc1` (stereo partly drawn) [4a,b]: the IC50 is 0.71 ± 1.2 µM.

With `O=C1CC(Cc2ccccc2)(C(=O)NCc2cccnc2)N1C[C@H](Cc1ccccc1)N(Cc1ccccc1)Cc1ccccc1` (stereo partly drawn) [9a,b], the IC50 worked out at 10.7 ± 1.38 µM.

The molecule `COC(=O)C1(Cc2ccccc2)CC(=O)N1C[C@H](Cc1ccccc1)N(Cc1ccccc1)Cc1ccccc1` (stereo partly drawn) [2a,b] returned an IC50 of 0.15 µM.

The experiment is the same for the next values; noted with them: Table 3; rTRPM8, HEK293, activation by 100 µM menthol.
In turn, `CC(C)CNC(=O)[C@]1(Cc2ccccc2)[C@H](C)C(=O)N1C[C@H](Cc1ccccc1)NCc1ccc2ccccc2c1` [Compound 45, 4S-Benzyl-4-[N-(iso-butyl)-carbamoyl]-3S-methyl-1-[(2′S-(2′′-naphtylmethyl)amino-3′-phenyl)prop-1′-yl]-2-oxoazetidine] came in with an IC50 of 3.56 ± 1.4 µM.

For `C[C@@H]1C(=O)N(C[C@H](Cc2ccccc2)NCc2cccc(-c3ccccc3)c2)[C@]1(Cc1ccccc1)C(=O)OC(C)(C)C` [Compound 40, 4S-Benzyl-4-(terc-butoxy)carbonyl-3S-methyl-1-[(2’S-N-(3′′-biphenyl)methylamino-3’-phenyl)prop-1′-yl]-2-oxoazetidine], the midpoint of inhibition, the IC50, lay at 6.36 ± 1.41 µM.

Take `CC(C)CNC(=O)[C@]1(Cc2ccccc2)[C@H](C)C(=O)N1C[C@H](Cc1ccccc1)NCc1cccc(F)c1` [Compound 43, 4S-Benzyl-4-[N-(iso-butyl)carbamoyl]-3S-methyl-1-[(2′S-(3′′-fluorobenzyl)amino-3′-phenyl)prop-1′-yl]-2-oxoazetidine]: half-maximal inhibition (IC50) was put at 4.03 ± 1.35 µM.

As to `CC(C)CNC(=O)[C@]1(Cc2ccccc2)[C@H](C)C(=O)N1C[C@H](Cc1ccccc1)NCc1cccc(-c2ccccc2)c1` [Compound 42, 4S-Benzyl-4-[N-(iso-butyl)-carbamoyl]-3S-methyl-1-[(2′S-(3′′-phenylbencil)amino-3′-phenyl)prop-1′-yl]-2-oxoazetidine], the IC50 came out at 2.19 ± 1.36 µM.

In turn, `C[C@@H]1C(=O)N(C[C@H](Cc2ccccc2)NCc2ccc(-c3ccccc3)cc2)[C@]1(Cc1ccccc1)C(=O)OC(C)(C)C` [Compound 41, 4S-Benzyl-4-terc-butoxycarbonyl-3S-methyl-1-[(2’S-N-(4′′-biphenyl)methylamino-3’-phenyl)prop-1′-yl]-2-oxoazetidine] came in with an IC50 of 9.26 ± 1.41 µM.

As to `CC(C)CNC(=O)[C@]1(Cc2ccccc2)[C@H](C)C(=O)N1C[C@H](Cc1ccccc1)NCc1cccc(Br)c1` [Compound 44, 4S-Benzyl-4-[N-(iso-butyl)carbamoyl]-3S-methyl-1-[(2′S-(3′′-bromobenzyl)amino-3′-phenyl)prop-1′-yl]-2-oxoazetidine], half-maximal inhibition (IC50) was put at 3.27 ± 1.31 µM.

In turn, `C[C@@H]1C(=O)N(C[C@H](Cc2ccccc2)NCc2ccccc2)[C@]1(Cc1ccccc1)C(=O)OC(C)(C)C` [Compound 37, 4S-Benzyl-4-(terc-butoxy)carbonyl-3S-methyl-1-[(2’S-N-benzylamino-3’-phenyl)prop-1′-yl]-2-oxoazetidine] had an IC50 of 3.06 ± 1.25 µM.

The experiment is the same for the next values; noted with them: relative to benzylamide 5a,b.
`O=C1CC(Cc2ccccc2)(C(=O)NCc2ccc(Cl)c(Cl)c2)N1C[C@H](Cc1ccccc1)N(Cc1ccccc1)Cc1ccccc1` (stereo partly drawn) [6a,b]: the “antagonist activity” value is listed as “notable reduction in antagonist activity”.
